Measured values from US20050059726A1, “Pyrrolidine-2-ones as factor xa inhibitors” (priority 2001, published 2005).

Target: human Factor Xa (Homo sapiens, UniProt P00742)
Assay: In vitro assay for inhibition of Factor Xa (2), fluorogenic assay
Type: biochemical
Conditions: substrate Rhodamine 110, bis-(CBZ-glycylglycyl-L-arginine amide 10 μM), Ki calculated from IC50
Experimental: In Vitro Assay for Inhibition of Factor Xa (2)
All other compounds of the present invention were tested for their Factor Xa inhibitory activity as determined in vitro by their ability to inhibit human Factor Xa in a fluorogenic assay, using Rhodamine 110, bis-(CBZ-glycylglycyl-L-arginine amide as the fluorogenic substrate. Compounds were diluted from a 10 mM stock solution in dimethylsulfoxide at appropriate concentrations. Assay was performed at room temperature using buffer consisting of: 50 mM Tris-HCl, 150 mM NaCl, 5 mM CaCl2, pH 7.4. containing human Factor Xa (final conc. Of 0.0003U.ml−1). Compound and enzyme were preincubated for 15 min prior to addition of the substrate (final conc. of 10 μM). The reaction was stopped after 3 hrs with the addition of H-D-PHE-PRO-ARG-Chloromethylketone. […] To obtain IC50 values the data were analysed using ActivityBase® and XLfit®.
Calculation of Ki values:
Ki=IC50/(1+[Substrate]/Km)
The Ki value for the above assay can be obtained by dividing the IC50 value by 1.6.

Sequence of human Factor Xa (P00742 235-488 limits assumed): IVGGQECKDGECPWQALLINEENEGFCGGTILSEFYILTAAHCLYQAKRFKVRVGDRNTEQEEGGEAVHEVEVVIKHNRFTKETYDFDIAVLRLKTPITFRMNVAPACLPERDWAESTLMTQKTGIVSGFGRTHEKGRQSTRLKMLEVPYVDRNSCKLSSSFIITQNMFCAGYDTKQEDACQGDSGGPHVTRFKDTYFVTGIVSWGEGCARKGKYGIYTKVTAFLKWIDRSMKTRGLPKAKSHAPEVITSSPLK
Sequence of human Factor Xa (P00742 41-179 partner limits assumed): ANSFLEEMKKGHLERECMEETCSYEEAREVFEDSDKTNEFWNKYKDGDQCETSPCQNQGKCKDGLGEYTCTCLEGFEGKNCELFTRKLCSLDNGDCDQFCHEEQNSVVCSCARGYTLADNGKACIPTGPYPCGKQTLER

SMILES | Ki
CS(=O)(=O)c1ccccc1-c1ccc(N2CC[C@H](NS(=O)(=O)c3cnc(-c4ccc(Cl)s4)s3)C2=O)c(F)c1 [Example 86, 2-(5-Chlorothien-2-yl)-N-{(3S)-1-[3-fluoro-2′-(methylsulfonyl)-1,1′-biphenyl-4-yl]-2-oxopyrrolidin-3-yl}-1,3-thiazole-5-sulfonamide] | < 20 nM
CS(=O)(=O)c1ccccc1-c1ccc(N2CC[C@H](NS(=O)(=O)c3cc4sc(Cl)cc4s3)C2=O)c(F)c1 [Example 87, 5-Chloro-N-{(3S)-1-[3-fluoro-2′-(methylsulfonyl)-1,1′-biphenyl-4-yl]-2-oxopyrrolidin-3-yl}thieno[3.2-b]thiophene-2-sulfonamide] | < 10 nM
CS(=O)(=O)c1ccccc1-c1ccc(N2CC[C@H](NS(=O)(=O)c3c(Cl)sc4ccsc34)C2=O)c(F)c1 [Example 88, 2-Chloro-N-{(3S)-1-[3-fluoro-2′-(methylsulfonyl)-1,1′-biphenyl-4-yl]-2-oxopyrrolidin-3-yl}thieno[3.2-b]thiophene-3-sulfonamide] | < 20 nM
O=C1[C@@H](NS(=O)(=O)/C=C/c2ccc(Cl)s2)CCN1c1ccc([N+](=O)[O-])cc1F [Example 95, (E)-2-(5-Chloro-2-thienyl)-N-[(3S)-1-(2-fluoro-4-nitrophenyl)-2-oxopyrrolidinyl]ethenesulfonamide] | < 20 nM
O=C1[C@@H](NS(=O)(=O)c2ccc(-c3ccc(Cl)s3)s2)CCN1c1ccc([N+](=O)[O-])cc1F [Example 96, 5′-Chloro-N-[(3S)-1-(2-fluoro-4-nitrophenyl)-2-oxopyrrolidin-3-yl]-2,2′-bithiophene-5-sulfonamide] | < 20 nM
N#Cc1ccc(N2CC[C@H](NS(=O)(=O)/C=C/c3ccc(Cl)s3)C2=O)c(F)c1 [Example 98, (E)-2-(5-Chlorothien-2-yl)-N-[(3S)-1-(4-cyano-2-fluorophenyl)-2-oxopyrrolidin-3-yl]ethenesulfonamide] | < 200 nM
N#Cc1ccc(N2CC[C@H](NS(=O)(=O)CCc3ccc(Cl)s3)C2=O)c(F)c1 [Example 99, 2-(5-Chlorothien-2-yl)-N-[(3S)-1-(4-cyano-2-fluorophenyl)-2-oxopyrrolidin-3-yl]ethanesulfonamide] | < 200 nM
NC(=O)c1ccc(N2CC[C@H](NS(=O)(=O)/C=C/c3ccc(Cl)s3)C2=O)nc1 [Example 106, 6-[(3S)-3-({[(E)-2-(5-Chlorothien-2-yl)ethenyl]sulfonyl}amino)-2-oxopyrrolidin-1-yl]nicotinamide] | < 200 nM
C/C(=C\S(=O)(=O)N[C@H]1CCN(c2ccc(C(=O)N(C)C)cc2F)C1=O)c1ccc(Cl)s1 [Example 110, 4-[(3S)-3({[(1E)-2-(5-Chlorothien-2-yl)prop-1-enyl]sulfonyl}amino)-2-oxopyrrolidin-1-yl]-3-fluoro-N,N-dimethylbenzamide] | < 10 nM
CC(=O)c1ccc(N2CC[C@H](NS(=O)(=O)/C=C/c3ccc(Cl)s3)C2=O)nc1 [Example 113, (E)-N-[(3S)-1-(5-Acetylpyridin-2-yl)-2-oxopyrrolidin-3yl]-2-(5-chlorothien-2-yl)ethenesulfonamide] | < 200 nM
CC(C)N(C=O)c1ccc(N2CC[C@H](NS(=O)(=O)/C=C/c3ccc(Cl)s3)C2=O)c(F)c1 [Example 120, (E)-2-(5-Chlorothien-2-yl)-N-((3S)-1-{2-fluoro-4-[formyl(isopropyl)amino]phenyl}-2-oxopyrrolidin-3-yl)ethenesulfonamide] | < 10 nM
O=C1[C@@H](NS(=O)(=O)CCc2ccc(Cl)s2)CCN1c1ccc(I)cn1 [Example 132, 2-(5-Chlorothien-2-yl)-N-[(3S)-1-(5-iodopyridin-2-yl)-2-oxopyrrolidin-3-yl]ethane-1-sulfonamide] | < 20 nM
NC(=O)CN([C@H]1CCN(c2ccc(C(N)=O)cc2F)C1=O)S(=O)(=O)/C=C/c1ccc(Cl)s1 [Example 133, 4-[(3S)-3-((2-Amino-2-oxoethyl){[(E)-2-(5-chlorothien-2-yl)ethenyl]sulfonyl}amino)-2-oxopyrrolidin-1yl]-3-fluorobenzamide] | < 10 nM
CN(C)C(=O)c1ccc(N2CC[C@H](N(CC(N)=O)S(=O)(=O)/C=C/c3ccc(Cl)s3)C2=O)c(F)c1 [Example 134, 4-[(3S)-3-((2-Amino-2-oxoethyl){[(E)-2-(5-chlorothien-2-yl)ethenyl]sulfonyl}amino)-2-oxopyrrolidin-1-yl]-3-fluoro-N,N-dimethylbenzamide] | < 10 nM
CC(O)c1ccc(N2CC[C@H](NS(=O)(=O)/C=C/c3ccc(Cl)s3)C2=O)c(F)c1 (stereo partly drawn) [Example 135, (E)-2-(5-Chlorothien-2-yl)-N-{(3S)-1-[2-fluoro-4-(1-hydroxyethyl)phenyl]-2-oxopyrrolidin-3-yl}ethenesulfonamide] | < 200 nM
C/C(=C\S(=O)(=O)N[C@H]1CCN(c2ccc(I)cn2)C1=O)c1ccc(Cl)s1 [Example 136] | < 10 nM
C/C(=C\S(=O)(=O)N[C@H]1CCN(c2ccc(NS(C)(=O)=O)cc2F)C1=O)c1ccc(Cl)s1 [Example 137, (1E)-2-(5-Chlorothien-2-yl)-N-((3S)-1-{2-fluoro-4-[(methylsulfonyl)amino]phenyl}-2-oxopyrrolidin-3-yl)prop-1-ene-1-sulfonamide] | < 20 nM
CC(=O)c1ccc(N2CC[C@H](NS(=O)(=O)/C=C/c3ccc(Cl)s3)C2=O)cc1 [Example 138, (E)-N-[(3S)-1-(4-Acetylphenyl)-2-oxopyrrolidin-3-yl]-2-(5-chlorothien-2-yl)ethenesulfonamide] | < 200 nM

Continued, values first:

Ki | SMILES
< 10 nM | O=C1[C@@H](NS(=O)(=O)c2ccc(-c3ccc(Cl)s3)s2)CCN1c1ccc(I)cc1F [Example 92, 5′-Chloro-N-[(3S)-1-(2-fluoro-4-iodophenyl)-2-oxopyrrolidin-3-yl]-2,2′-bithiophene-5-sulfonamide]
< 200 nM | O=C1[C@H](NS(=O)(=O)c2cc3ccc(Cl)cc3s2)CCN1c1ccc([N+](=O)[O-])cc1F [Example 94, 6-Chloro-N-[(3R)-1-(2-fluoro-4-nitrophenyl)-2-oxopyrrolidinyl]-1-benzothiophene-2-sulfonamide]
< 10 nM | N#Cc1ccc(N2CC[C@H](NS(=O)(=O)c3cc4ccc(Cl)cc4s3)C2=O)c(F)c1 [Example 97, 6-Chloro-N-[(3S)-1-(4-cyano-2-fluorophenyl)-2-oxopyrrolidin-3-yl]-1-benzothiophene-2-sulfonamide]
< 1000 nM | O=C1[C@@H](NS(=O)(=O)c2ccc3cc(Cl)ccc3c2)CCN1c1ccccc1F [Example 101, 6-Chloro-N-[(3S)-1-(2-fluorophenyl)-2-oxopyrrolidin-3-yl]naphthalene-2-sulfonamide]
< 1000 nM | O=C1[C@@H](NS(=O)(=O)c2ccc3cc(Cl)ccc3c2)CCN1c1ccc(N2CCOCC2)c(F)c1 [Example 103, 6-Chloro-N-{(3S)-1-[3-fluoro-4-(4-morpholinyl)phenyl]-2-oxopyrrolidinyl}-2-naphthalenesulfonamide]
< 10 nM | CN(C)C(=O)c1ccc(N2CC[C@H](NS(=O)(=O)c3cc4ccc(Cl)cc4s3)C2=O)c(F)c1 [Example 109, 4-((3S)-3-{[(6-Chloro-1-benzothien-2-yl)sulfonyl]amino}-2-oxopyrrolidin-1-yl)-3-fluoro-N,N-dimethylbenzamide]
< 1000 nM | CC(C)N(C)C(=O)c1ccc(N2CC[C@H](NS(=O)(=O)c3cc4ccc(Cl)cc4s3)C2=O)c(F)c1 [Example 111, 4-((3S)-3-{[(6-Chloro-1-benzothien-2-yl)sulfonyl]amino}-2-oxopyrrolidin-1-yl)-3-fluoro-N-isopropyl-N-methylbenzamide]
< 1000 nM | CC(=O)Nc1ccc(N2CC[C@H](NS(=O)(=O)c3cc4ccc(Cl)cc4s3)C2=O)c(F)c1 [Example 117, N-[4-((3S)-3-{[(6-Chloro-1-benzothien-2-yl)sulfonyl]amino}-2-oxopyrrolidinyl)-3-fluorophenyl]acetamide]
< 1000 nM | CCC(=O)Nc1ccc(N2CC[C@H](NS(=O)(=O)c3cc4ccc(Cl)cc4s3)C2=O)c(F)c1 [Example 118, N-[4-((3S)-3-{[(6-Chloro-1-benzothien-2-yl)sulfonyl]amino}-2-oxopyrrolidinyl)-3-fluorophenyl]propanamide]
< 20 nM | CC(C)N(C=O)c1ccc(N2CC[C@H](NS(=O)(=O)c3cc4ccc(Cl)cc4s3)C2=O)c(F)c1 [Example 121, 6-Chloro-N-((3S)-1-{2-fluoro-4-[formyl(isopropyl)amino]phenyl}-2-oxopyrrolidin-3-yl)-1-benzothiophene-2-sulfonamide]
< 10 nM | O=C1[C@@H](NS(=O)(=O)c2ccc3cc(Cl)ccc3c2)CCN1c1ccc(-n2ccnc2)cc1F [Example 122, 6-Chloro-N-{(3S)-1-[2-fluoro-4-(1H-imidazol-1-yl)phenyl]-2-oxopyrrolidin-3-yl}naphthalene-2-sulfonamide]
< 10 nM | Cc1cn(-c2ccc(N3CC[C@H](NS(=O)(=O)c4ccc5cc(Cl)ccc5c4)C3=O)c(F)c2)cn1 [Example 128, 6-Chloro-N-{(3S)-1-[2-fluoro-4-(4-methyl-1H-imidazol-1-yl)phenyl]-2-oxopyrrolidinyl}-2-naphthalenesulfonamide]
< 10 nM | O=C1[C@@H](NS(=O)(=O)c2ccc3cc(Cl)ccc3c2)CCN1c1ccc(-n2cccn2)cc1F [Example 129, 6-Chloro-N-{(3S)-1-[2-fluoro-4-(1H-pyrazol-1-yl)phenyl]-2-oxopyrrolidinyl}-2-naphthalenesulfonamide]
